Data reported in US12559464B2, “Quinazolinone dione compounds and uses thereof” (Edgewise Therapeutics, Inc., priority 2023, dated 2026).

Tests used:
[1] = system: myosin ATPase, Rabbit Psoas myofibrils; assay: Myofibril ATPase assay, rabbit psoas (skeletal) myofibrils; format: biochemical; settings: Rabbit Psoas Prep pCa 25 GEOM_MEAN; for Rabbit Psoas EC25 (Y75 value): concentration required to reduce myosin ATP-ase activity by 25%; for Rabbit Psoas Y125 value (marked #): concentration required to increase myosin ATP-ase activity by 25%
Description: [Worded in the source for another species; this species is reported under the same test.] (§1) Myofibril ATPase assays are known in the art to be useful in evaluating small molecules for the treatment of HCM and other cardiac indications. Myosin ATPase activity is assessed by using a coupled reaction system, in which ADP generated by the myosin ATPase function is coupled to the disappearance of NADH through the pyruvate kinase/lactate dehydrogenase (PK-LDH) system. ATPase activity produces ADP, which is used as a substrate for PK to produce pyruvate and regenerate ATP. The pyruvate is then used as a substrate by LDH to oxidize NADH to NAD+. The rate of the reaction is monitored through the time-dependent disappearance of NADH using absorbance at 340 nm, which, when the couple system is in stoichiometric excess, is directly correlated to the ATPase activity of the myosin. Inhibition of ATPase activity by the assayed compounds is indicated by a reduced rate of NADH loss, relative to vehicle-treated controls, over the experimental time window. Porcine Ventricle are the primary sources of myofibril material.
(§2) Materials: The following stock solutions and reagents were used in the Myofibril ATPase Assay: Stock Solutions; PIPES, 200 mM and 120 mM in H2O, pH 7.0; MgCl2 in H2O, 200 mM; PM12 Buffer, 10×: 120 mM PIPES (from 200 mM stock), 20 mM MgCl2 (from 200 mM stock); PBS Buffer, 1X: 135 mM NaCl, […], 10 mM Na(PO4)2, 1.8 mM K2(PO4), pH 7.4; EGTA in H2O, 250 mM; CaCl2) in H2O, 500 mM; DTT in H2O, 1 M; BSA in H2O, 10 mg/mL; ATP in 1×PBS, 50 mM; NADH in 1X PM12 and 1 mM DTT, 26 mM; PEP in 1X PM12, 78 mM, pH 7.0.
(§3) Stock Solutions of pCa buffer. Combine PIPES, CaCl2, and EGTA solutions with water. Adjust pH to 7.0 and bring final volume to 100 mL.
(§4) Buffer A & Buffer B. Prepare buffers A and B according to the table below.
(§5) Myofibril ATPase Assay Procedure: BSA, ATP, NADH, PEP, and DTT solutions were thawed at room temperature, then transferred to ice. Pellet-frozen myofibrils were transferred with approximately twice the required volume into a sufficiently large tube and capped. Myofibrils were thawed by rolling in a water bath for approximately 15 min at room temperature and cooled on ice. Buffers A and B were prepared by adjusting volumes as necessary for required number of wells and stored on ice. 0.5 μL of the compounds to be assayed were added into wells. 25 μL of Buffer A was dispensed into the wells, followed by 25 μL of Buffer B. The wells were measured for absorbance at 340 nm, using a kinetic protocol in which the wells are read every 1.5-2 min for 75 min. Assay data analysis was performed using a python script that filtered the raw data to retain those points falling between a starting and ending time and between a maximum and minimum absorbance, then used the filtered time-domain 340 nm absorbance data in each well to calculate a slope via linear regression analysis in units of mAU/min. Compound slopes were normalized between 100% and 0% activity, where 100% represented the slope of wells containing only compound vehicle, and fit to a 4-parameter logistic model. In addition to the fit parameters, the EC25% values were calculated, relative to the 100% normalized value. Additionally, the Y125 values were calculated for compounds that increased myosin ATP-ase activity. Fit parameters, calculated effective concentrations, filtered raw data, and calculated slopes were exported, in addition to compound-specific graphs of normalized ATPase activity versus concentration in μM. Each value reported in Table 8 is either a Y75 value or a Y125 value. Values without pound sign, #, are Y75 values, which reflect the concentration required to reduce myosin ATP-ase activity by 25% (e.g., Y-axis activity value is 75% of initial value), relative to myosin ATP-ase activity in the absence of exogenous compound. […]

[2] = system: myosin ATPase, Porcine Atria myofibrils; assay: Myofibril ATPase assay, porcine atria myofibrils; format: biochemical; settings: concentration required to reduce myosin ATP-ase activity by 25%; Porcine Atria Prep pCa 25 GEOM_MEAN
[3] = biological target: T1, myosin ATPase, Porcine Ventricle myofibrils (Sus scrofa, UniProt P79293); assay: Myofibril ATPase assay, porcine ventricle myofibrils; format: biochemical, porcine (Yucatan minipigs); settings: concentration required to reduce myosin ATP-ase activity by 25%; Porcine Ventricle Prep pCa 25 GEOM_MEAN
T1 construct: Myofibrils from porcine cardiac muscle was isolated from the left ventricle of Yucatan minipigs; tissue Exemplar Genetics; host or cells: left ventricle of Yucatan minipigs, myofibrils
Description: as §1, §2, §3, §4, §5

T1 sequence (P79293 whole entry): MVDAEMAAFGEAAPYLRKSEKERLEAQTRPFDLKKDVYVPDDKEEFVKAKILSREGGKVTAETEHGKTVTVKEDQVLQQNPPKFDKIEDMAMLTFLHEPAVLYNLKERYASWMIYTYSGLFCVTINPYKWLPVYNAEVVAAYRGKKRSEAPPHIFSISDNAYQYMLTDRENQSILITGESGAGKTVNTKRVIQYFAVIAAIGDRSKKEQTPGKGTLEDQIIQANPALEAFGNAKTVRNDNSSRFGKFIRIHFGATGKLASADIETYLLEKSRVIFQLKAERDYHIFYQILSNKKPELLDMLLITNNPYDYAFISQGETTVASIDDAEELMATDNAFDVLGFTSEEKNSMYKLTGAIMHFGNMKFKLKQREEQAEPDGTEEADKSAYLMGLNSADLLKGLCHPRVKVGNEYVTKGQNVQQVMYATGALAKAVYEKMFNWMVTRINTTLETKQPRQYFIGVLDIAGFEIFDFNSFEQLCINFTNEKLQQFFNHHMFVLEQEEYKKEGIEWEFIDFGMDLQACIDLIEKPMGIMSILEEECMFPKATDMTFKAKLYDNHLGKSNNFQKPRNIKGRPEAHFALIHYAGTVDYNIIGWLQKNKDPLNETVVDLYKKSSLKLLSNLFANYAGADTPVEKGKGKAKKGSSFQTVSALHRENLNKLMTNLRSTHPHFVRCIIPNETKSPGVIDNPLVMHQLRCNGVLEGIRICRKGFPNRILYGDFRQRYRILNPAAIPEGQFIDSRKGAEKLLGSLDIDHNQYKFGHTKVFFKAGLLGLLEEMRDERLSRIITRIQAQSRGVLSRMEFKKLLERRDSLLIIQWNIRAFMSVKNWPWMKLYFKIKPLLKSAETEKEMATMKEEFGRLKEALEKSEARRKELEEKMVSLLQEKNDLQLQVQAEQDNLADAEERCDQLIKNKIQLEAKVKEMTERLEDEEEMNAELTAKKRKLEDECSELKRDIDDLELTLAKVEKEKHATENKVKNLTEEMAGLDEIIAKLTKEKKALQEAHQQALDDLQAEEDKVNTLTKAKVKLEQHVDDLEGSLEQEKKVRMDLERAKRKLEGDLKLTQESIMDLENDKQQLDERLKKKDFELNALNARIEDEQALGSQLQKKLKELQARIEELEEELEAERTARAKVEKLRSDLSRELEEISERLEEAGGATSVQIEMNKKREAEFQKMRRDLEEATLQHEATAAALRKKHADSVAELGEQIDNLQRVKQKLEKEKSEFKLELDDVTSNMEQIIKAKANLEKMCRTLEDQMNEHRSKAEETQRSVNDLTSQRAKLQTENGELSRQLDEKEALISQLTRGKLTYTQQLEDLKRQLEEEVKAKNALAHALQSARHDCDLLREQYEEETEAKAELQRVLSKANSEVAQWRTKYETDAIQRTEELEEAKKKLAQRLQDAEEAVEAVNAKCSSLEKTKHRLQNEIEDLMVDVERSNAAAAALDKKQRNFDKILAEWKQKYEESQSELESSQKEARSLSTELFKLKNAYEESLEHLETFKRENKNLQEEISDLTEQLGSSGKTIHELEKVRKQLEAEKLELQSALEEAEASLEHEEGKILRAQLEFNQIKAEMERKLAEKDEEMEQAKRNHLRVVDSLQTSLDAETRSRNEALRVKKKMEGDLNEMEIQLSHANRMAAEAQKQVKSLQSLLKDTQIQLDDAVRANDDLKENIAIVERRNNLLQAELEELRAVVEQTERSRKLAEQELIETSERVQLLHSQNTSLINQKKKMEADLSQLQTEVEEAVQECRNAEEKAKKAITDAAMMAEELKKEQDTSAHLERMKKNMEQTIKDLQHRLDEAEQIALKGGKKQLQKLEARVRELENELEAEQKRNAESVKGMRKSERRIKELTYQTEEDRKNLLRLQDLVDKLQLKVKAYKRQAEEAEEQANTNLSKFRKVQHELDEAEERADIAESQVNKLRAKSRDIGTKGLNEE

Row | Rabbit Psoas EC25 (Y75 value) [1] | Porcine Atria EC25 (Y75 value) [2] | Porcine Ventricle EC25 (Y75 value) [3] | Rabbit Psoas Y125 value (marked #) [1] | Structure (SMILES)
1 | 3.24 µM | 0.445 µM | 4.63 µM |  | C[C@H](NC(=O)Cn1c(=O)[nH]c2ccccc2c1=O)c1ccc(Cl)cc1 (single isomer, unassigned) [Compound 530]
2 | 0.36 µM | 0.1046 µM | 1.526 µM |  | Cc1cc(F)ccc1[C@H](C)NC(=O)Cn1c(=O)[nH]c2ccccc2c1=O (single isomer, unassigned) [Compound 503]
3 | 0.11 µM | 0.1312 µM | 1.15 µM |  | C[C@H](NC(=O)Cn1c(=O)[nH]c2cccc(F)c2c1=O)c1ccc(F)cc1F [Compound 154, (S)-N-(1-(2,4-difluorophenyl)ethyl)-2-(5-fluoro-2,4-dioxo-1,4-dihydroquinazolin-3(2H)-yl)acetamide]
4 | 1.521 µM | 1.036 µM | 87.37 µM |  | C[C@H](NC(=O)[C@@H](C)n1c(=O)[nH]c2ccccc2c1=O)c1ccc(F)cc1F (single isomer, unassigned) [Compound 101]
5 | 0.204 µM | 0.178 µM | 4.869 µM |  | C[C@H](NC(=O)Cn1c(=O)[nH]c2ccc(F)c(F)c2c1=O)c1ccc(C#N)nn1 (single isomer, unassigned) [Compound 4]
6 | 58.79 µM | 100 µM | 100 µM |  | CN1CC(NC(=O)Cn2c(=O)[nH]c3ccccc3c2=O)c2c(F)cc(F)cc2C1=O (stereo not drawn) [Compound 43, N-(5,7-difluoro-2-methyl-1-oxo-1,2,3,4-tetrahydroisoquinolin-4-yl)-2-(2,4-dioxo-1,4-dihydroquinazolin-3(2H)-yl)acetamide]
7 |  | 100 µM | 100 µM | 90.27^# μM | CC(C)C[C@H](NC(=O)Cn1c(=O)[nH]c2ccccc2c1=O)c1ccc(F)cc1F (single isomer, unassigned) [Compound 70]
8 | 100 µM | 100 µM | 100 µM |  | COc1ccc([C@@H](C)NC(=O)Cn2c(=O)[nH]c3ccccc3c2=O)cc1 (single isomer, unassigned) [Compound 528]
9 | 0.476 µM | 0.1074 µM | 6.567 µM |  | C[C@H](NC(=O)[C@H](C)n1c(=O)[nH]c2ccc(F)cc2c1=O)c1ccc(F)cc1F [Compound 40, (S)-N-((S)-1-(2,4-difluorophenyl)ethyl)-2-(6-fluoro-2,4-dioxo-1,4-dihydroquinazolin-3(2H)-yl)propanamide]
10 |  | 12.2 µM | 100 µM | 100^# ^ μM | C[C@H](NC(=O)Cn1c(=O)c2cc(F)ccc2n(C)c1=O)c1ccc(F)cc1F [Compound 404, (S)-N-(1-(2,4-difluorophenyl)ethyl)-2-(6-fluoro-1-methyl-2,4-dioxo-1,4-dihydroquinazolin-3(2H)-yl)acetamide]
11 | 9.016 µM | 0.427 µM | 10.16 µM |  | C[C@@H](NC(=O)Cn1c(=O)[nH]c2ccc(F)c(F)c2c1=O)c1ccc(C#N)cn1 (single isomer, unassigned) [Compound 17]
12 | 39.563 µM | 59.55 µM | 100 µM |  | CC(C)C[C@H](C(=O)N[C@@H](C)c1ncc(F)cc1F)n1c(=O)[nH]c2ccccc2c1=O (single isomer, unassigned) [Compound 28]
13 | 1.66 µM | 1.799 µM | 0.615 µM |  | C[C@@H](NC(=O)Cn1c(=O)[nH]c2ccc(F)c(F)c2c1=O)c1ncc(C#N)cc1F (single isomer, unassigned) [Compound 21]
14 | 5.727 µM | 23.51 µM | 100 µM |  | CC(NC(=O)Cn1c(=O)[nH]c2ccccc2c1=O)c1cc(F)ccc1F (stereo not drawn) [Compound 525, N-(1-(2,5-difluorophenyl)ethyl)-2-(2,4-dioxo-1,4-dihydroquinazolin-3(2H)-yl)acetamide]
15 | 100 µM | 100 µM | 100 µM |  | CC[C@H](NC(=O)Cn1c(=O)[nH]c2ccccc2c1=O)c1ccc(F)cc1F (single isomer, unassigned) [Compound 49]
16 | 0.799 µM | 2.095 µM | 7.141 µM |  | Cc1nccc2[nH]c(=O)n(CC(=O)N[C@@H](C)c3ncc(C#N)cc3F)c(=O)c12 [Compound 20, (S)-N-(1-(5-cyano-3-fluoropyridin-2-yl)ethyl)-2-(5-methyl-2,4-dioxo-1,4-dihydropyrido[4,3-d]pyrimidin-3(2H)-yl)acetamide]
17 |  | 56.82 µM | 59.48 µM | 24.3^# μM | CC(C)C[C@@H](C(=O)N[C@@H](C)c1ccc(F)cc1F)n1c(=O)[nH]c2ccccc2c1=O (single isomer, unassigned) [Compound 31]
18 | 0.40 µM | 0.19 µM | 1.04 µM |  | C[C@H](NC(=O)C1(n2c(=O)[nH]c3ccc(F)c(F)c3c2=O)CC1)c1ncc(C#N)cc1F (single isomer, unassigned) [Compound 3013]
19 | 0.937 µM | 1.067 µM | 25.71 µM |  | O=C(Cn1c(=O)[nH]c2ccccc2c1=O)N[C@@H]1CCCc2cc(F)cc(F)c21 (single isomer, unassigned) [Compound 57]
20 | 100 µM | 100 µM | 100 µM |  | O=C(Cn1c(=O)[nH]c2ccccc2c1=O)N[C@H]1CCCc2cc(F)cc(F)c21 (single isomer, unassigned) [Compound 55]
21 | 0.828 µM | 1.375 µM | 28.36 µM |  | C[C@H](NC(=O)[C@@H](C)n1c(=O)[nH]c2ccc(F)cc2c1=O)c1ccc(F)cc1F [Compound 41, (R)-N-((S)-1-(2,4-difluorophenyl)ethyl)-2-(6-fluoro-2,4-dioxo-1,4-dihydroquinazolin-3(2H)-yl)propanamide]
22 | 0.174 µM | 0.118 µM | 0.559 µM |  | C[C@H](NC(=O)Cn1c(=O)[nH]c2ccc(F)cc2c1=O)c1cnc(C#N)nc1 (single isomer, unassigned) [Compound 210]
